Legend:
Prothrombin [1] = target: T1, Prothrombin (Homo sapiens, UniProt P00734); experiment: Inhibitory activity against thrombin at a concentration of 2.5 uM
Prothrombin [2] = target: T1, Prothrombin; settings: at 250 µM
Description: Inhibitory activity against thrombin at a concentration of 250 uM

[3] = target: T2, Urokinase-type plasminogen activator (Homo sapiens, UniProt P00749); experiment: (§1) Inhibitory activity against Urokinase-type plasminogen activator
[4] = target: T3, Tissue-type plasminogen activator (Homo sapiens, UniProt P00750); settings: at 250 µM
Target sequence in this assay (P00750 36-562 limits assumed): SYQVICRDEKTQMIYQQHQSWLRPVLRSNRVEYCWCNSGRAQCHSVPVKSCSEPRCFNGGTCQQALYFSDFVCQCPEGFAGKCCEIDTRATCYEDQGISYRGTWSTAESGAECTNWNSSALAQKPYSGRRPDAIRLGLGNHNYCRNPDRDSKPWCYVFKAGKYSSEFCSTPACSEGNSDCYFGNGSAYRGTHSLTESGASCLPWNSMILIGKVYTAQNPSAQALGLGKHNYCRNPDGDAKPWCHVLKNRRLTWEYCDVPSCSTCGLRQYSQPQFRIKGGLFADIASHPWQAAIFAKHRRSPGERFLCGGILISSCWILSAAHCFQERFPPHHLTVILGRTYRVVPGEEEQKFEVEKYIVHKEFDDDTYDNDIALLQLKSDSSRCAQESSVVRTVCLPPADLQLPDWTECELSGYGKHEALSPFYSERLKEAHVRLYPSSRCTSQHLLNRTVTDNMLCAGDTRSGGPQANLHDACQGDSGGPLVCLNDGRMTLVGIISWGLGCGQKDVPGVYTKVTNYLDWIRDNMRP
Description: (§2) Inhibitory activity against Tissue type plasminogen activator at a concentration of 250 uM

Coagulation factor X [5] = target: T4, Coagulation factor X (Homo sapiens, UniProt P00742); settings: at 250 µM
Description: Inhibitory activity against Coagulation factor Xa at a concentration of 250 uM

Plasminogen [6] = target: T5, Plasminogen (Homo sapiens, UniProt P00747); settings: at 250 µM
Description: Inhibitory activity against plasmin at a concentration of 250 uM

Prothrombin [7] = target: T1, Prothrombin; experiment: Inhibitory activity against thrombin
[8] = target: T3, Tissue-type plasminogen activator; experiment: Inhibitory activity against Tissue type plasminogen activator
Target sequence in this assay (P00750 whole entry): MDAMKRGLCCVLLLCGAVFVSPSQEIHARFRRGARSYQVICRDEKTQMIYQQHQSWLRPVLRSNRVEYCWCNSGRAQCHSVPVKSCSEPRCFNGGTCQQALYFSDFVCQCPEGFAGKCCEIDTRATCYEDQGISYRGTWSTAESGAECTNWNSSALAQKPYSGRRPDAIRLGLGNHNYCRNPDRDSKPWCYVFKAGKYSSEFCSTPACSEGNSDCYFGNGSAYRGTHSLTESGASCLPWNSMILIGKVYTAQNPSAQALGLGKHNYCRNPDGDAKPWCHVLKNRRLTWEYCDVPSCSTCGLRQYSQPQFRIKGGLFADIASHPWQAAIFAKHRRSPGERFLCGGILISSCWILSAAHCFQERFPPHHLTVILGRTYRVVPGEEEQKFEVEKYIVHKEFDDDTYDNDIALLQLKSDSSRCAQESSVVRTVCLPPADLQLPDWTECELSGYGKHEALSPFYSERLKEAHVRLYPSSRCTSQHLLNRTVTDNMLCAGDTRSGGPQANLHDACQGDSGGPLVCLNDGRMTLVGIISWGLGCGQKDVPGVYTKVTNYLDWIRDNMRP

Plasminogen [9] = target: T5, Plasminogen; experiment: Inhibitory activity against plasmin
Coagulation factor X [10] = target: T4, Coagulation factor X; experiment: Inhibitory activity against Coagulation factor Xa
[11] = target: T2, Urokinase-type plasminogen activator; experiment: as §1; remark: listed apart in the source
[12] = target: T3, Tissue-type plasminogen activator; experiment: Inhibitory activity against Tissue type plasminogen activator at a concentration of 2.5 uM
Target sequence in this assay (P00750 36-562 limits assumed): as the sequence (P00750 36-562 limits assumed) above

[13] = target: T3, Tissue-type plasminogen activator; experiment: Inhibitory activity against Tissue type plasminogen activator at a concentration of
Target sequence in this assay (P00750 36-562 limits assumed): as above

[14] = target: T3, Tissue-type plasminogen activator; settings: at 250 µM; remark: listed apart in the source
Target sequence in this assay (P00750 36-562 limits assumed): as above
Description: as §2

T5 sequence (P00747 97-580 limits assumed): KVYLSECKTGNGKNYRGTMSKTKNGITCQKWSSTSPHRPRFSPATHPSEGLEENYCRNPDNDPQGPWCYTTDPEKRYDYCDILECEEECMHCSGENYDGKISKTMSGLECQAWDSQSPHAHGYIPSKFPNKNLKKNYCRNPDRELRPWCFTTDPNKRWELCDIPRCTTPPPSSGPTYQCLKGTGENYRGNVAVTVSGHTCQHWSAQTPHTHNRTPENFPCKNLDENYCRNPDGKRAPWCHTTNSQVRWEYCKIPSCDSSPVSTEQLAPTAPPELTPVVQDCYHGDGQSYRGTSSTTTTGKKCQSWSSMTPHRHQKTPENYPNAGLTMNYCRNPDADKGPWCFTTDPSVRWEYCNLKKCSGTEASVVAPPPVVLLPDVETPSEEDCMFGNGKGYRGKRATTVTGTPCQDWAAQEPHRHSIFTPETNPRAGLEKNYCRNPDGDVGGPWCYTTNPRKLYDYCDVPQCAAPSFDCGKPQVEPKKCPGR
T5 sequence (P00747 581-810 limits assumed): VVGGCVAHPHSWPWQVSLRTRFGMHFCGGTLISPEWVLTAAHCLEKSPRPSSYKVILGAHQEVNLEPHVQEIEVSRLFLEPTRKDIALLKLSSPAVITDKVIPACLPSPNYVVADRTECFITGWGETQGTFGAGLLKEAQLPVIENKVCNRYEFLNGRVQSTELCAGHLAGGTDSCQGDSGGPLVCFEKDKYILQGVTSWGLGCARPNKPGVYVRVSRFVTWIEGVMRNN
T4 sequence (P00742 41-179 limits assumed): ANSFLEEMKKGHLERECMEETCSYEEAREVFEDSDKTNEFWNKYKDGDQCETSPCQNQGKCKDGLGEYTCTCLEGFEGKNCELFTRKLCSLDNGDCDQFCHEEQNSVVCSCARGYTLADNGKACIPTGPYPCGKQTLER
T4 sequence (P00742 235-488 limits assumed): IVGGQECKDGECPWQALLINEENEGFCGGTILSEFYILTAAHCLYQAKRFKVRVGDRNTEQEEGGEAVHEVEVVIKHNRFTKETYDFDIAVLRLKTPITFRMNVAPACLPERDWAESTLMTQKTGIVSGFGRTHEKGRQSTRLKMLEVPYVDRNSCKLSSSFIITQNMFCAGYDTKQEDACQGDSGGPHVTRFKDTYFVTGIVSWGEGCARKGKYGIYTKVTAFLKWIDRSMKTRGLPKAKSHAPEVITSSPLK

| SMILES | K app [3] [M⁻¹ s⁻¹] | inhibition (Coagulation factor X [5]) [%] | inhibition (Plasminogen [6]) [%] | IC50 [11] [nM] | other results |
| --- | --- | --- | --- | --- | --- |
| C[C@H](NC(=O)[C@@H](CO)NC(=O)OCc1ccccc1)C(=O)NC(CCN=C(N)N)P(=O)(Oc1ccccc1)Oc1ccccc1 (some centres undefined) | 1.4 | 6 | 15 |  | inhibition (Prothrombin [1]): 10%; inhibition (Prothrombin [2]): 96%; inhibition [4]: 46% |
| C[C@H](NC(=O)[C@@H](CO)NC(=O)OCc1ccccc1)C(=O)NC(Cc1ccc(N=C(N)N)cc1)P(=O)(Oc1ccccc1)Oc1ccccc1 (some centres undefined) |  |  |  | 57 | IC50 (Prothrombin [7]): 30 µM; IC50 [8]: 14 µM; IC50 (Plasminogen [9]): 22 µM; IC50 (Coagulation factor X [10]): 79 µM |
| C[C@H](NC(=O)[C@@H](CO)NC(=O)OCc1ccccc1)C(=O)NC(Cc1ccc(NC(=N)N)cc1)P(=O)(Oc1ccccc1)Oc1ccccc1 (some centres undefined) | 6.7 |  |  |  |  |
| C[C@H](NC(=O)[C@@H](CO)NC(=O)OCc1ccccc1)C(=O)NC(CCCN=C(N)N)P(=O)(Oc1ccccc1)Oc1ccccc1 (some centres undefined) |  |  |  |  | inhibition [12]: 50% |
| C[C@H](NC(=O)[C@@H](CO)NC(=O)OCc1ccccc1)C(=O)NC(c1ccc(NC(=N)N)cc1)P(=O)(Oc1ccccc1)Oc1ccccc1 (some centres undefined) | 2 | 56 | 46 |  | inhibition (Prothrombin [1]): 44%; inhibition [13]: 53% |
| C[C@H](NC(=O)[C@@H](CO)NC(=O)OCc1ccccc1)C(=O)NC(CCNC(=N)N)P(=O)(Oc1ccccc1)Oc1ccccc1 (some centres undefined) |  |  |  | 4100 |  |
| N=C(N)NC(=O)c1nc(Cl)c(N)nc1N [AMILORIDE] |  | 17 | 23 |  | IC50 (Prothrombin [7]): > 250 µM; IC50 [8]: > 250 µM |
| C[C@H](NC(=O)[C@@H](CO)NC(=O)OCc1ccccc1)C(=O)NC(CCCCN=C(N)N)P(=O)(Oc1ccccc1)Oc1ccccc1 (some centres undefined) | 3.8 |  |  | 250 | inhibition (Prothrombin [1]): 12%; inhibition [12]: 19% |
| C[C@H](NC(=O)[C@@H](CO)NC(=O)OCc1ccccc1)C(=O)NC([C@H]1CC[C@H](CN=C(N)N)CC1)P(=O)(Oc1ccccc1)Oc1ccccc1 (some centres undefined) | 1.4 | 77 |  | 1100 | inhibition [14]: 41%; IC50 (Plasminogen [9]): 32.2 µM; inhibition (Prothrombin [2]): 40% |
| C[C@H](NC(=O)[C@@H](CO)NC(=O)OCc1ccccc1)C(=O)NC(c1ccc(N=C(N)N)cc1)P(=O)(Oc1ccccc1)Oc1ccccc1 (some centres undefined) |  |  |  | 1600 |  |
| C[C@H](NC(=O)[C@@H](CO)NC(=O)OCc1ccccc1)C(=O)NC(CCCNC(=N)N)P(=O)(Oc1ccccc1)Oc1ccccc1 (some centres undefined) |  |  |  | 61 | IC50 (Prothrombin [7]): 0.5 µM; IC50 (Plasminogen [9]): 10.8 µM; IC50 (Coagulation factor X [10]): 65 µM |
| C[C@H](NC(=O)[C@@H](CO)NC(=O)OCc1ccccc1)C(=O)NC(c1ccc(CN=C(N)N)cc1)P(=O)(Oc1ccccc1)Oc1ccccc1 (some centres undefined) | 3.3 | 44 | 45 | 8400 | inhibition [14]: 43%; inhibition (Prothrombin [2]): 20% |

Reference: ChEMBL document CHEMBL1137073, “Development of irreversible diphenyl phosphonate inhibitors for urokinase plasminogen activator” (J Med Chem, 2004)
